{"source": "patent US8653052B2", "about": "“Drug combination and its use in the treatment of muscle loss” (Acacia Pharma Limited, priority 2007, dated 2014)", "key": {"[1]": {"test_system": "tumour bearing rats (AH-130 Yoshida ascites hepatoma)", "assay": "Yoshida AH-130 rat ascites hepatoma cachexia model, initial experiment: total food intake", "assay_type": "in vivo", "conditions": "at day 3, racemic formoterol 10 μg/kg/day, alone or with megestrol acetate 100 mg/kg/day", "source_text": "This study involves the use of the Yoshida AH-130 rat ascites hepatoma model, which is a particularly suitable model system for studying the mechanisms involved in the establishment of cachexia. Its growth in the host causes rapid and progressive loss of bodyweight and tissue wasting, particularly in skeletal muscle. […] Co-administration of each of these β2 agonists with the progestin, megestrol acetate, is also investigated.\nWistar rats weighing about 100 g are used (Busquets et al 2004, Cancer Res 64:6725-6731). The animals are maintained on a regular light-dark cycle (light from 08.00 am to 8.00 pm) with free access to food and water. Their diet consists of 54% carbohydrate, 17% protein and 5% fat, and the food intake is measured daily. Rats are given an intraperitoneal inoculum of 10^8 AH-130 Yoshida ascites hepatoma cells obtained from exponential tumours.\nThe animals were divided into groups: those receiving the test drugs and those receiving vehicle. Drug administration is by subcutaneous injection. Seven days after tumour transplantation, the animals are weighed and anaesthetised with a ketamine/xylacine mixture. The tumour is harvested from the peritoneal cavity, and its volume and cellularity evaluated. […]\nIn an initial experiment, the tumour bearing rats were divided into three groups. […] The rats were monitored over a 3 day period."}, "[2]": {"conditions": "as reported in U.S. Pat. No. 5,449,694; cited from earlier work"}, "cancer patients": {"test_system": "cancer patients", "conditions": "cited from earlier work; for Effect on appetite, calorie intake and nutritional status: several clinical trials"}}, "note": "Counter-ions that a name gives are not always drawn."}
{"smiles": "COc1ccc(CC(C)NCC(O)c2ccc(O)c(NC=O)c2)cc1", "note": "(racemic) [racemic formoterol, (±)-N-[2-Hydroxy-5-[1(R*)-hydroxy-2-[1(R*)-methyl-2-(4-methoxyphenyl)ethylamino]ethyl]phenyl]formamide fumarate (2:1) monohydrate]", "values": [{"measurement": "Total food intake", "setting": "[1]", "value": "45±2", "unit": "g/100 g rat"}]}
{"smiles": "C[C@@H](NCCc1ccc(O)cc1)[C@@H](O)c1ccc(O)cc1.Cl", "note": "(single isomer, unassigned) [(−)-ritodrine]", "values": [{"measurement": "Relative potency of enantiomers", "setting": "[2]", "value": "more potent enantiomer"}]}
{"smiles": "CC(=O)O[C@]1(C(C)=O)CC[C@H]2[C@@H]3C[C@H](C)C4=CC(=O)CC[C@]4(C)[C@H]3CC[C@@]21C", "note": "[medroxy-progesterone acetate]", "values": [{"measurement": "Effect on appetite, calorie intake and nutritional status", "setting": "cancer patients", "value": "improve appetite, calorie intake and nutritional status"}]}
{"smiles": "CC(=O)O[C@]1(C(C)=O)CC[C@H]2[C@@H]3C=C(C)C4=CC(=O)CC[C@]4(C)[C@H]3CC[C@@]21C", "note": "[megestrol acetate]", "values": [{"measurement": "Cancer patients treated with a weight gain of greater than 5%", "setting": "cancer patients; cancer patients, significant component of the gain due to fat", "value": 15, "unit": "%"}, {"measurement": "Effect on appetite, calorie intake and nutritional status", "setting": "cancer patients", "value": "improve appetite, calorie intake and nutritional status"}]}
